In patent publication US7816330B2, “Substituted benzimidazole-, benztriazole-, and benzimidazolone-O-glucosides” (Janssen Pharmaceutica NV, priority 2003, dated 2010):
pIC50: −log10 of the molar value.

Columns and labels:
[1] = target: T1, human SGLT1 (Homo sapiens, UniProt P13866); test: Cell-based assay for sodium-dependent glucose transport (14C-AMG uptake), CHOK-SGLT1; conditions: CHO-K1 cells stably expressing human SGLT1, Na-dependent 14C-AMG uptake; for inhibition at 10 µM: read-out: CHOK-SGLT1 % Inh. @10 μM
T1 construct: expressed in transfected cells; pcDNA vector)
T1 sequence (P13866 1-664): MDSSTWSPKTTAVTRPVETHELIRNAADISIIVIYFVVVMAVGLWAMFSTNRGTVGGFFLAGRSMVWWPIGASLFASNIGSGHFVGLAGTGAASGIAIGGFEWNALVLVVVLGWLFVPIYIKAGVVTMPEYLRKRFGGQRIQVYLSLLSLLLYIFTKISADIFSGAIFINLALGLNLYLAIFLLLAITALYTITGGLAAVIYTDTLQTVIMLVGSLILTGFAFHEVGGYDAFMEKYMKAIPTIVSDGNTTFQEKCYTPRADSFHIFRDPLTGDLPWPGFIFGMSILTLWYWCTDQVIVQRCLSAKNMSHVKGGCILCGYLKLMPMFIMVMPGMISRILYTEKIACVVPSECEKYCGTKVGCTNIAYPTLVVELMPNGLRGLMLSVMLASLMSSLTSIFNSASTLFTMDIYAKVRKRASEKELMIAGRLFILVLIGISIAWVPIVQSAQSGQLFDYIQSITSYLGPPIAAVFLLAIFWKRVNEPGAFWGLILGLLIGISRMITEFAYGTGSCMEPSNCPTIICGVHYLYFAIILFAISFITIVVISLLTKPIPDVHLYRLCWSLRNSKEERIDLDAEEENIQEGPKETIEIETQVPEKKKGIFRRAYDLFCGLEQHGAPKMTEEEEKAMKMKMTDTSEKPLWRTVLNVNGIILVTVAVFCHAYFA
Method: (§1) Cloning of the human SGLT1 and human SGLT2 cDNAs and construction of the mammalian expression vector: The human SGLT1 cDNA (Genbank M24847) was cloned from human small intestine. Human SGLT2 cDNA (Genbank M95549) was cloned from human kidney. Both full cDNAs were subcloned into pcDNA and sequenced to verify the integrity of the construct.
(§2) Generation of CHO-K1 cells stably expressing human SGLT1 or human SGLT2: Transfection of CHO-K1 cells was performed using DMRIE-C reagent (Life Technologies, Gaithersburg, Md.). Transfectants were then selected in the presence of the antibiotic G418 (Gibco-BRL, Grand Island, N.Y.) at 400 μg/ml. Individual clones were then characterized using the functional assay described below.
(§3) Cell-based assay for sodium-dependent glucose transport: Cell lines stably expressing human SGLT1 or SGLT2 were then used for functional analysis of Na+-dependent glucose uptake. Briefly, cells were plated at a density of 65,000 cells per well in a 96-well plate and allowed to grow for 48 hours. Cells were subsequently washed one time with Assay Buffer (50 mM HEPES pH 7.4, 20 mM Tris, 5 mM KCl, 1 mM MgCl2, 1 mM CaCl2 and 137 mM NaCl) and treated with compound in the absence or presence of NaCl for 15 minutes. Cells were then labeled with ^14C-α-methylglucopyranoside (AMG, Sigma, St. Louis, Mo.), a non-metabolizable glucose analog specific for sodium-dependent glucose transporters as previously described (Peng, H. and Lever J. E. Post-transcriptional regulation of Na^+/glucose cotransporter (SGLT1) gene expression in LLC-PK1 cells. J Biol Chem 1995; 270:20536-20542.). After 2 hours the labelled cells were washed three times with ice-cold PBS. After aspiration, cells were solubilized using Microscint 20 (Packard, Meriden, Conn.) and Na-dependent ^14C-AMG uptake was quantified by measuring radioactivity. Plates were counted in a TopCount (Packard, Meriden, Conn.). Results are reported as the % inhibition or IC50 value from a representative experiment. Variability for the functional assay was typically within 20%.

[2] = target: T2, human SGLT2 (Homo sapiens, UniProt P31639); test: Cell-based assay for sodium-dependent glucose transport (14C-AMG uptake), CHOK-SGLT2; conditions: CHO-K1 cells stably expressing human SGLT2, Na-dependent 14C-AMG uptake; for inhibition at 10 µM: read-out: CHOK-SGLT2 % Inh. @10 μM
T2 construct: expressed in transfected cells; pcDNA vector)
T2 sequence (P31639 1-672): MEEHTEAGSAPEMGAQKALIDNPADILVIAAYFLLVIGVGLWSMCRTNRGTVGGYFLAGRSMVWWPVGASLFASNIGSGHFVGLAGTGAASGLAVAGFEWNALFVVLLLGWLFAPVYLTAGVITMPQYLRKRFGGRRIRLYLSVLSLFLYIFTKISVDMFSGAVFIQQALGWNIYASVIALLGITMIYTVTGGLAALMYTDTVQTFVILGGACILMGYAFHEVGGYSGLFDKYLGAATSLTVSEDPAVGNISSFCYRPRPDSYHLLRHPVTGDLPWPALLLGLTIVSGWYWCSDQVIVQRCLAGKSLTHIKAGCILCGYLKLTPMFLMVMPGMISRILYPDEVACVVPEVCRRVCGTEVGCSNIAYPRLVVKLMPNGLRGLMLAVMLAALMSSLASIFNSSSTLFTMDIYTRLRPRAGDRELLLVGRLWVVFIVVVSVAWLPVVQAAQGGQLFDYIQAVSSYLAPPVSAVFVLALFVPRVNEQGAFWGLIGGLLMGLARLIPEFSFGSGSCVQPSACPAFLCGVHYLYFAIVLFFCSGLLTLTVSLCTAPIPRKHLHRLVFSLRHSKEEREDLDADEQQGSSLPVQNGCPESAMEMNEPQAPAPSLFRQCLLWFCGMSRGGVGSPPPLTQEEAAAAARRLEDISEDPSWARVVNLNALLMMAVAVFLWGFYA
Method: as §1, §2, §3

Row | inhibition at 10 µM [1] [%] | pIC50 [2] | pIC50 [1] | inhibition at 10 µM [2] [%] | SMILES
1 |  | 7.21 | 5.95 |  | CCc1ccc(Cn2cnc3cc(C)cc(O[C@@H]4O[C@H](CO)[C@@H](O)[C@H](O)[C@H]4O)c32)cc1 [Example 8, 2-[3-(4-Ethyl-benzyl)-6-methyl-3H-benzoimidazol-4-yloxy]-β-D-glucopyranoside]
2 |  | 8.10 | 6.23 |  | CCc1ccc(Cn2nnc3cccc(OC4OC(CO)C(O)C(O)C4O)c32)cc1 [Example 10, 2-[3-(4-Ethyl-benzyl)-3H-benzotriazol-4-yloxy]-β-D-glucopyranoside]
3 | 40 | 6.41 |  |  | COc1ccc(CCn2nnc3cccc(OC4OC(CO)C(O)C(O)C4O)c32)cc1 [Example 9, 2-{3-[2-(4-methoxy-phenyl)-ethyl]-3H-benzotriazol-4-yloxy}-β-D-glucopyranoside]
4 |  | 7.42 | 6.15 |  | OCC1OC(Oc2cccc3ncn(CCc4ccc5c(c4)CCO5)c23)C(O)C(O)C1O (stereo not drawn) [Example 7, 2-{3-[2-(2,3-Dihydro-benzofuran-5-yl)-ethyl]-3H-benzoimidazol-4-yloxy}β-D glucopyranoside]

More lines, now with the values behind:

Row | SMILES | inhibition at 10 µM [1] [%] | pIC50 [2] | pIC50 [1] | inhibition at 10 µM [2] [%]
5 | COc1ccc(CCn2cnc3cccc(OC4OC(CO)C(O)C(O)C4O)c32)cc1 [Example 5, 2-{3-[2-(4-Methoxyphenyl)-ethyl]-3H-benzoimidazol-4-yloxy}-β-D-glucopyranoside] | 61 | 6.44 |  | 
6 | O=c1[nH]c2cccc(OC3OC(CO)C(O)C(O)C3O)c2n1CCc1ccc2ccccc2c1 [Example 1, 2-[3-(2-Naphthalen-2-yl-ethyl)-1,3-dihydro-benzoimidazol-2-one-4-yloxy]-β-D-glucopyranoside] |  |  |  | 31
7 | CCc1ccc(Cn2cnc3cccc(OC4OC(CO)C(O)C(O)C4O)c32)cc1 [Example 4, 2-[3-(4-Ethyl-benzyl)-3H-benzoimidazol-4-yloxy]-β-D-glucopyranoside] |  | 7.80 | 5.95 | 
8 | CCc1ccc(Cn2c(=O)[nH]c3cccc(OC4OC(CO)C(O)C(O)C4O)c32)cc1 [Example 3, 2[3-(4-Ethyl-benzyl)-1,3-dihydro-benzoimidazol-2-one-4-yloxy]-β-D-glucopyranoside] | 1 | 5.99 |  | 
9 | OCC1OC(Oc2cccc3ncn(CCc4ccc5ccccc5c4)c23)C(O)C(O)C1O [Example 2, 2-[3-(2-naphthalen-2-yl-ethyl)-3H-benzoimidazol-4-yloxy]-β-D-glucopyranoside] | 55 | 6.48 |  | 
10 | COc1ccc(CCn2c(=O)[nH]c3cccc(OC4OC(CO)C(O)C(O)C4O)c32)cc1 (stereo not drawn) [Example 6] |  |  |  | 18
